Source: the supplement of paper PMC10627819

Legend:
S. pneumoniae D39V [1] = assay: Bliss interaction score (quartile over a dose matrix) (fitness difference); higher = more antagonism (negative = synergy)
How it was run: (§1)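 The Bliss score is observed minus expected fitness under the product model, reported as quartiles over technical, biological and donor/recipient replicates. Fitness is the OD595 at entry into stationary phase divided by the plate's robust no-drug mean and capped at 1. Single-drug fitness was inferred from combination data.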

S. aureus Newman = assay: as above
How it was run: as §1

B. subtilis 168 [2] = assay: as above
How it was run: as §1

S. aureus DSM 20231 [3] = assay: as above
How it was run: as §1

S. pneumoniae D39V [4] = assay: fitness (endpoint OD595 vs no drug) (fraction); higher = more growth
How it was run: (§2)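 Volumes were 30 µl per well, or 55 µl for S. pneumoniae, in 384-well plates inoculated at OD595 0.01. Media were TSB, LB Lennox or CY at 37 °C, and OD595 was read every 30 min for 14 h with first-reading background subtraction. Fitness is the ratio of optical density at stationary-phase entry to the robust mean of no-drug controls. That ratio is capped at 1.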

S. aureus DSM 20231 [5] = assay: as above
How it was run: as §2

B. subtilis 168 [6] = assay: as above
How it was run: as §2
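For Bliss interaction score (quartile over a dose matrix) in this document: first quartile when negative (synergy) and third quartile when positive (antagonism).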

CC(=O)NC[C@H]1CN(c2ccc(N3CCOCC3)c(F)c2)C(=O)O1 [Linezolid] + Cn1nnc(-c2ccc(-c3ccc(N4C[C@H](CO)OC4=O)cc3F)cn2)n1 [Tedizolid]
Details	Bliss interaction score
B. subtilis 168 [2]	-0.188
S. aureus DSM 20231 [3]	-0.185
S. aureus Newman	-0.153
S. pneumoniae D39V [1]	-0.148

fitness
Details	partner 0.03125 µg/mL	partner 0.0625 µg/mL	partner 0.125 µg/mL	partner 0.25 µg/mL	partner 0.5 µg/mL
S. aureus DSM 20231 [5], first compound 0.125 µg/mL	–	0.689	0.501	0.257	–
S. aureus DSM 20231 [5], first compound 0.25 µg/mL	–	0.456	0.26	0.141	–
S. aureus DSM 20231 [5], first compound 0.5 µg/mL	–	0.119	0.0888	0.0646	–
S. pneumoniae D39V [4], first compound 0.105 µg/mL	–	–	0.682	0.441	0.141
S. pneumoniae D39V [4], first compound 0.2 µg/mL	0.819	0.825	0.723	–	–
S. pneumoniae D39V [4], first compound 0.21 µg/mL	–	–	0.58	0.286	0.0818
S. pneumoniae D39V [4], first compound 0.4 µg/mL	0.73	0.724	0.633	–	–
S. pneumoniae D39V [4], first compound 0.42 µg/mL	–	–	0.249	0.107	0.0451
S. pneumoniae D39V [4], first compound 0.8 µg/mL	0.549	0.578	0.465	–	–

S. aureus DSM 20231 [5], first compound 1 µg/mL, one replicate
Details	fitness
partner 0.0625 µg/mL	0.0257
partner 0.125 µg/mL	0.0309
partner 0.25 µg/mL	0.0295

CN[C@@H]1[C@H](O)[C@H](NC)[C@H]2O[C@@]3(O)C(=O)C[C@@H](C)O[C@H]3O[C@@H]2[C@H]1O [Spectinomycin] + COc1cc(Cc2cnc(N)nc2N)cc(OC)c1OC [Trimethoprim]
Details	Bliss interaction score
B. subtilis 168 [2]	-0.0925
S. aureus DSM 20231 [3]	0.0932
S. aureus Newman	0.0863
S. pneumoniae D39V [1]	-0.161

fitness, one replicate
Details	first compound 2 µg/mL	first compound 4 µg/mL	first compound 8 µg/mL	first compound 32 µg/mL	first compound 64 µg/mL
B. subtilis 168 [6], partner 0.1 µg/mL	0.871	0.821	0.686	–	–
B. subtilis 168 [6], partner 0.125 µg/mL	0.707	0.606	0.414	–	–
B. subtilis 168 [6], partner 0.2 µg/mL	0.781	0.762	0.386	–	–
B. subtilis 168 [6], partner 0.4 µg/mL	0.473	0.556	0.223	–	–
B. subtilis 168 [6], partner 1 µg/mL	0.508	0.338	0.167	–	–
B. subtilis 168 [6], partner 2 µg/mL	0.408	0.187	0.0702	–	–
S. aureus DSM 20231 [5], partner 0.125 µg/mL	–	0.808	0.822	0.629	0.026
S. aureus DSM 20231 [5], partner 0.25 µg/mL	–	–	–	0.573	0.0208
S. aureus DSM 20231 [5], partner 0.5 µg/mL	–	–	–	0.299	0.0374

fitness
Details	first compound 4 µg/mL	first compound 8 µg/mL	first compound 16 µg/mL
B. subtilis 168 [6], partner 0.25 µg/mL	–	0.482	–
B. subtilis 168 [6], partner 0.5 µg/mL	0.496	0.308	–
S. aureus DSM 20231 [5], partner 0.125 µg/mL	–	–	0.654
S. aureus DSM 20231 [5], partner 0.25 µg/mL	0.598	0.593	0.649
S. aureus DSM 20231 [5], partner 1 µg/mL	0.0368	0.0298	0.0188
